The term Cmax denotes the peak of the concentration-time curve. For orientation: Tmax means the time at which the peak concentration occurs.

Where a name gives a salt, the structure may show the parent alone.

Data set [1] is described as follows: Rat oral pharmacokinetics of clopidogrel bisulfate (3 mg/kg) with or without triethyl citrate/triacetin. The note with it: Sprague-Dawley, plasma. In kind it is in vivo, rats. As for the experimental part:
Serial plasma samples were obtained from each rat and concentrations of clopidogrel and clopidogrel acid in the plasma samples were determined by LC-MS/MS.

A short description of the next data set: in vivo. The note with it: male, Sprague-Dawley, rat, po, 30 mg/kg. The method, then:
Male rats (Sprague-Dawley, 300-400 g) were surgically implanted with jugular-vein cannulas one day prior to dosing and fasted overnight (about 18-20 hours) prior to dosing. Water was available ad libitum throughout the experiment. Dosing solutions of olmesartan medoxomil (5 mg/ml) were prepared in a vehicle of DMSO/PEG400 (10/90, v/v) or DMSO/PEG400/triacetin (10/80/10, v/v). Single oral doses of the olmesartan medoxomil and olmesartan medoxomil/triacetin were each administered separately to a group of 3 male rats by gavage. Each rat received olmesartan medoxomil (5 mg/kg) in DMSO/PEG400 (10/90, v/v) or olmesartan medoxomil (5 mg/kg) in DMSO/PEG400/triacetin (10/80/10, v/v).
Blood samples (0.15 ml/rat) were collected from each rat via the jugular-vein cannula at 0, 0.25, 0.5, 1, 2, 4, 6, 8, and 24 hours after dosing. Plasma was separated from blood cells by centrifugation and frozen at −20° C. until analysis. […] A plasma concentration-time curve was plotted based on the obtained data.

In data set [2] the test system is CE from porcine liver. The experiment in a line: In vitro CE-mediated hydrolysis of olmesartan medoxomil in the presence of ester excipients. In kind it is in vitro ADME. The note with it: for effect on CE-mediated hydrolysis of olmesartan medoxomil (in words): compared with lecithin, Table 1; for preliminary screen of ester excipients for impeding hydrolysis of olmesartan medoxomil by CE in vitro: preliminary results. The method, then: Various known pharmaceutical ester excipients including triacetin, glyceryl tristearate, triethyl citrate, lecithin, tri-n-butyl citrate, acetyl triethyl citrate, and acetyl tri-n-butyl citrate were respectively tested to determine whether any of them impedes hydrolysis of olmesartan medoxomil by CE in vitro.
Test solutions (a) to (f) were prepared respectively as follows: (a) 10 μM of olmesartan medoxomil dissolved in 10% DMSO (dimethyl sulfoxide)/90% PEG400 (w/w, stability control); (b) 10 μM of olmesartan medoxomil dissolved in 10% DMSO/90% PEG400 (w/w, blank control) (c) 10 μM of olmesartan medoxomil dissolved in 10% DMSO/12% triacetin/78% PEG400 (w/w/w); (d) 10 μM of olmesartan medoxomil dissolved in 10% DMSO/12% triethyl citrate/78% PEG400 (w/w/w); (e) 10 μM of olmesartan medoxomil dissolved in 10% DMSO/12% lecithin/78% PEG400 (w/w/w); and (f) 10 μM of olmesartan medoxomil dissolved in 10% DMSO/6% triacetin/6% triethyl citrate/78% PEG400 (w/w/w/w).
CE from porcine liver (17 units/mg, available from Sigma-Aldrich) was dissolved in simulated intestinal fluid (SIF, pH=6.8) to yield a CE solution (17 units/ml). SIF was prepared by dissolving 0.6805 g of KH2PO4 and 0.0896 g of NaOH in 100 ml of de-ionized water.
Each 70 μl of olmesartan medoxomil solution (i.e., solutions (a)-(f)) was mixed with 70 μl of SIF and thereby forming mixtures (a) to (f). Each of the mixtures (a) to (f) was transferred to one well of a 96-well plate, and 60 μl each of the CE solution was added to respective wells containing mixtures (b) to (f) to initiate the reaction. In addition, sixty (60) μl of SIF without CE was added to mixture (a). This incubation mixture without CE was used as a stability control to determine the chemical stability of olmesartan medoxomil in the incubation mixture. The mixtures were incubated for 20 minutes under the air at 37° C. with constant shaking on a temperature-controlled heating block.
At the end of the 20-minute incubation, 100 μl of ice-cold acetonitrile was added to each well to terminate the reaction. Each mixture was vortexed and centrifuged at 15,000×g for 20 min at room temperature. The supernatants were tested in HPLC/UV analysis, in which the concentration of olmesartan medoxomil in each mixture was measured. Percentages (%) of olmesartan medoxomil remaining in the mixtures were calculated based on the obtained data.

The test system of data set [3] is CE from porcine liver. In words: In vitro CE-mediated hydrolysis of clopidogrel in the presence of triacetin, triethyl citrate or both. In kind it is in vitro ADME. The settings on record: Table 2.
Data set [4] in a line: Rat oral pharmacokinetics of capecitabine with or without triethyl citrate. In kind it is in vivo, rats. The settings on record: capecitabine in rat plasma, capecitabine 5 mg/kg, triethyl citrate 45 mg/kg where given. As for the experimental part: Capecitabine is an ester prodrug, which is hydrolyzed mainly by CE2 in the GI track and CE1 in the liver and then converted by two enzymes to its active drug (5-fluorouracil) in the tumor after oral administration of capecitabine to cancer patients. […] Each rat received capecitabine (5 mg/kg) in DMSO or capecitabine (5 mg/kg) in DMSO/triethyl citrate (45 mg/kg).

Data set [5] in a line: Rat oral pharmacokinetics of capecitabine with or without triethyl citrate/triacetin. The class given is in vivo, rats. The settings on record: capecitabine in rat plasma, capecitabine 5 mg/kg, triethyl citrate 22.5 mg/kg + triacetin 22.5 mg/kg where given. The method, then:
In a rat study similar to the study described above, each rat received capecitabine (5 mg/kg) in DMSO or capecitabine (5 mg/kg) in DMSO/triethyl citrate (22.5 mg/kg)/triacetin (22.5 mg/kg).

Data set [6] can be described thus: Rat oral pharmacokinetics of olmesartan medoxomil with or without triacetin. The class given is in vivo, rats (Sprague-Dawley). The note with it: rats, oral administration, plasma LC-MS/MS. As for the experimental part: Water was available ad libitum throughout the experiment. Dosing solutions of olmesartan medoxomil (5 mg/ml) were prepared in a vehicle of DMSO/PEG400 (10/90, v/v) or DMSO/PEG400/triacetin (10/80/10, v/v). […] Each rat received olmesartan medoxomil (5 mg/kg) in DMSO/PEG400 (10/90, v/v) or olmesartan medoxomil (5 mg/kg) in DMSO/PEG400/triacetin (10/80/10, v/v).

[7] abbreviates: mean n=3, read-out: AUC0-24 hr of capecitabine.

On to `COC(=O)[C@H](c1ccccc1Cl)N1CCc2sccc2C1` [Clopidogrel Bisulfate, clopidogrel bisulfate], for which, in data set [1], the Cmax is 0.8 ng/mL and the Tmax is 2.9 h. In addition, in data set [1] (read-out: AUC0-24 hr of clopidogrel), the AUC(0-t) is 2 ng·h/mL. Besides, in “in vivo”, the AUC(0-t) turned out to be 28 ng·h/mL, the peak level (Cmax) was 7.3 ng/mL and the Tmax came to 4.1 h.

As to `CC(=O)OCC(COC(C)=O)OC(C)=O` [triacetin], in the data set with CE from porcine liver [2], the “effect on CE-mediated hydrolysis of olmesartan medoxomil (in words)” value is “retards CE-mediated hydrolysis of olmesartan medoxomil” and the “preliminary screen of ester excipients for impeding hydrolysis of olmesartan medoxomil by CE in vitro” value is listed as “promising candidates”. Besides, the “effect on CE-mediated hydrolysis of clopidogrel (in words)” value in the data set on CE from porcine liver [3] is on record as “retard CE-mediated hydrolysis of clopidogrel”.

As to `CCCCCOC(=O)Nc1nc(=O)n([C@@H]2O[C@H](C)[C@@H](O)[C@H]2O)cc1F` [Capecitabine, capecitabine], the figures for the Cmax in data set [4] (mean n=3) and in data set [5] (mean n=3) were 11.8 ng/mL and 8.9 ng/mL, respectively. Also, the results for the time to peak (Tmax) in data set [4] (mean n=3) and in data set [5] (mean n=3) were 0.8 h and 0.4 h, respectively. In addition, the values for the AUC(0-t) in data set [4] (setting [7]) and in data set [5] (setting [7]) were 34 ng·h/mL and 15 ng·h/mL, respectively.

Take `CCOC(=O)CC(O)(CC(=O)OCC)C(=O)OCC` [triethyl citrate]: in the data set with CE from porcine liver [2], the “effect on CE-mediated hydrolysis of olmesartan medoxomil (in words)” value is “retards CE-mediated hydrolysis of olmesartan medoxomil” and the “preliminary screen of ester excipients for impeding hydrolysis of olmesartan medoxomil by CE in vitro” value is “promising candidates”. Also, in the data set with CE from porcine liver [3], the “effect on CE-mediated hydrolysis of clopidogrel (in words)” value was “retard CE-mediated hydrolysis of clopidogrel”; the “effectiveness in impeding CE-mediated hydrolysis of clopidogrel compared with triacetin and lecithin (in words)” value is “more effective in impeding CE-mediated hydrolysis of clopidogrel than triacetin and lecithin”.

Regarding `CCCc1nc(C(C)(C)O)c(C(=O)OCc2oc(=O)oc2C)n1Cc1ccc(-c2ccccc2-c2nnn[nH]2)cc1` [Olmesartan Medoxomil, olmesartan medoxomil], the “hydrolysis of olmesartan medoxomil to olmesartan after absorption” value in data set [6] is recorded as “completely hydrolyzed to olmesartan”.

These data come from US20140121178A1, “METHOD AND IMPROVED PHARMACEUTICAL COMPOSITION FOR IMPROVING THE ABSORPTION OF AN ESTER PRODRUG” (ACENDA PHARMA INC., priority 2011, published 2014).
